Assays:
[1] = test system: GABAA α-6 site; test: GABAA alpha 6 site competitive binding (3H-Ro 15-4513); conditions: Conc. 1.0E−4 M, bovine hippocampus
Description: (§1) The binding profile of exemplary inventive compounds to neurotransmitter receptor sites is set forth below in Table 1. The characterization of the receptors, isolation of the membrane, and enzyme assay have been described in detail previously (see, e.g., Cole et al., Life Sci., 35, 1755 (1984), Lawrence et al., J. Neurochem., 45(3), 798 (1985), Sweetnam et al., Mol. Pharmacology, 29, 299 (1986), Zarkovsky et al., Neuropharmacology, 26 (7A), 737 (1987), Li et al., Eur. J. Pharmacology, 413, 63 (2001), and Markela et al., Mol. Pharmacology, 52, 380 (1997)).
(§2) The melatonin binding site on GABAA was defined using a series of competitive binding assays. Frozen bovine hippocampus was thawed and homogenized in 40 volumes of ice-cold 0.32 M sucrose. The suspension was centrifuged at 1000×g for 10 minutes at 4° C. The pellet was washed twice in assay buffer and reacted with radioactive ligand in presence or absence of melatonin at 10^−4 M final concentration. The amount of radioactivity remained on the Whatman filter following filtration of the reaction mix and two washes with assay buffer was determined using a liquid scintillation counter. Inhibition of radioactive ligand binding by melatonin represents the competitive binding of melatonin to the same site as the radioactive ligand. GABAA agonist site, GABAA α-1 site, GABAA α-5 site, GABAA α-6 site, and GABAA Cl channel were assayed using ^3H-GABA, ^3H-flunitrazepam, ^3H-RY80, ^3H-Ro 15-4513, and ^3H-TBOB.

[2] = target: T1, GABAA α-5 site (Bos taurus, UniProt P22300+Q08E50); test: GABAA alpha 5 site competitive binding (3H-RY80); conditions: bovine hippocampus
T1 construct: Frozen bovine hippocampus was thawed and homogenized in 40 volumes of ice-cold 0.32 M sucrose; from tissue; host or cells: bovine hippocampus membranes (washed pellet)
T1 sequence (Q08E50 32-462): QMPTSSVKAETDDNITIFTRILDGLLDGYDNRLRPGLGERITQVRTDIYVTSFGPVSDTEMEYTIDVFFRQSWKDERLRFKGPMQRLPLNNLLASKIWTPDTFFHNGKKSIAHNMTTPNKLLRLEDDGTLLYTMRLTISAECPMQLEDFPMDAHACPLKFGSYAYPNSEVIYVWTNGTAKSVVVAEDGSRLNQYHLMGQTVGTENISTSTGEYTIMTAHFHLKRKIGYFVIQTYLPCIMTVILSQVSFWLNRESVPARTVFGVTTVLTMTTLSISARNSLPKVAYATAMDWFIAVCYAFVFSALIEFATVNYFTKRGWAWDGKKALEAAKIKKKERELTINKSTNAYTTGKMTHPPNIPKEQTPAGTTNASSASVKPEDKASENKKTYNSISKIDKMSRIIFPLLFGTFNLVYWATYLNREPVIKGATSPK
T1 sequence (P22300 40-475): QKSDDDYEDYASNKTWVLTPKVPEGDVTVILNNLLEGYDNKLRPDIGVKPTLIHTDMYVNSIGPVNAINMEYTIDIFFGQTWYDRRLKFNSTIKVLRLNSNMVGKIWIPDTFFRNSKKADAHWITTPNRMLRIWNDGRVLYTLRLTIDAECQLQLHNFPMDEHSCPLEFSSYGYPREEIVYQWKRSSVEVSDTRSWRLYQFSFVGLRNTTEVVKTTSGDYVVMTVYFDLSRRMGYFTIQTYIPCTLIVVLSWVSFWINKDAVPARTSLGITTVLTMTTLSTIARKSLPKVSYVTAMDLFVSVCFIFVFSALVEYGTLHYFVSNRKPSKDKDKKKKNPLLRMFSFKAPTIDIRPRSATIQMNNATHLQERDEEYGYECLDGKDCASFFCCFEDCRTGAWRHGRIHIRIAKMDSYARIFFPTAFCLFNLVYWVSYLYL
Experimental: Frozen bovine hippocampus was thawed and homogenized in 40 volumes of ice-cold 0.32 M sucrose. The suspension was centrifuged at 1000×g for 10 minutes at 4° C. […] The amount of radioactivity remained on the Whatman filter following filtration of the reaction mix and two washes with assay buffer was determined using a liquid scintillation counter. Inhibition of radioactive ligand binding by melatonin represents the competitive binding of melatonin to the same site as the radioactive ligand.

[3] = test system: GABAA α-1 site; test: GABAA alpha 1 site competitive binding (3H-flunitrazepam); conditions: Conc. 1.0E−4 M, bovine hippocampus
Description: as §1, §2

[4] = test system: GABAA Cl channel; test: GABAA Cl channel, TBOB site competitive binding (3H-TBOB), single concentration; conditions: Conc. 1.0E−4 M, bovine hippocampus
Description: as §1, §2

[5] = test system: GABAA α-1 site; test: GABAA alpha 1 site competitive binding (3H-flunitrazepam); conditions: Conc. 1.0E−3 M, bovine hippocampus
[6] = test system: GABAA α-6 site; test: GABAA alpha 6 site competitive binding (3H-Ro 15-4513); conditions: Conc. 1.0E−3 M, bovine hippocampus
[7] = test system: GABAA Cl channel; test: GABAA Cl channel, TBOB site competitive binding (3H-TBOB), single concentration; conditions: Conc. 1.0E−3 M, bovine hippocampus
[8] = test system: GABAA agonist site; test: GABAA agonist site competitive binding (3H-GABA); conditions: Conc. 1.0E−3 M, bovine hippocampus
Description: as §1, §2

Row | Structure (SMILES) | Specific binding, GABAA Alpha 6 site (inhibition of radioactive ligand binding) [1] [%] | Specific binding, GABAA Alpha 5 site (inhibition of radioactive ligand binding) ([2]; Conc. 1.0E−4 M) [%] | Specific binding, GABAA Alpha 1 site (inhibition of radioactive ligand binding) [3] [%] | Specific binding, GABAA Ion Channels Cl−, TBOB site (inhibition of radioactive ligand binding) [4] [%] | Specific binding, GABAA Alpha 1 site (inhibition of radioactive ligand binding) [5] [%] | Specific binding, GABAA Alpha 6 site (inhibition of radioactive ligand binding) [6] [%] | Specific binding, GABAA Ion Channels Cl−, TBOB site (inhibition of radioactive ligand binding) [7] [%] | Specific binding, GABAA Alpha 5 site (inhibition of radioactive ligand binding) ([2]; Conc. 1.0E−3 M) [%] | Specific binding, GABAA Agonist site (inhibition of radioactive ligand binding) [8] [%]
1 | COc1ccc(-c2[nH]c3ccc(OC)cc3c2CCNC(C)=O)cc1 | 6.68 | 7.09 | −8.16 | 108.82 | – | – | – | – | –
2 | COc1cc2c(CCNC(C)=O)c[nH]c2cc1Cl [6-Chloromelatonin] | – | – | – | – | 12.49 | −7.74 | 43.63 | 13.95 | −13.74

Reference: patent US7674816B2, “Substituted melatonin derivatives, process for their preparation, and methods of use” (Abraxis BioScience, LLC, priority 2003, dated 2010)
